Source: patent US20150344457A1, “METHODS OF INHIBITING PRMT5” (EPIZYME, INC., priority 2012, published 2015)

Columns and labels:
[1] = tested on: Z-138 cells; test: Z-138 Proliferation Assay (Cell Titer Glo, 5 days); type: cell-based; details: Homo sapiens, Table D-2
Procedure, shortened: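 Exponentially growing Z-138 cells (10,000 cells/ml) in RPMI 1640 with 10% FBS are exposed to nine-point 3-fold dilutions (final top concentration 20 μM, 0.2% DMSO) for 5 days at 37° C. Viability is measured as ATP by CellTiter-Glo luminescence. The 50% inhibitory concentration comes from a 4-parameter fit.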

[2] = tested on: Z-138 cells; test: Z-138 Methylation Assay (In Cell Western for symmetric di-methyl arginine and DNA content); type: cell-based; details: Homo sapiens, Table D-2, read-out: ICW EC50
Procedure, shortened: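 Z-138 cells at 50,000 cells/mL exposed to compound 96 h at 37 °C, then attached to poly-D-lysine plates, fixed with paraformaldehyde and probed with anti-symmetric di-methyl arginine plus DRAQ5 DNA stain. 800/700 nm ratio normalized to DMSO and 3 μM reference controls; IC50 from triplicate wells.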

Row | SMILES | EC50 [1] [µM] | EC50 [2] [µM]
1 | Cn1ccc2ccc(-c3cccc(OCC(O)CN4CCc5ccccc5C4)c3)nc21 (stereo not drawn) [Compound D176] | > 20 | 0.101 to 1
2 | COC(=O)c1cncc(-c2cccc(OCC(O)CN3CCc4ccccc4C3)c2)c1 (stereo not drawn) [Compound D180] | > 20 | > 20
3 | CNC(=O)c1cncc(-c2cccc(OCC(O)CN3CCc4ccccc4C3)c2)c1 (stereo not drawn) [Compound D182] | > 20 | 1 to 10
4 | Cn1cnc(C(=O)Nc2cccc(OCC(O)CN3CCc4ccccc4C3)c2)c1 (stereo not drawn) [Compound D183] | > 20 | 1 to 10
5 | O=C(c1cccc(-c2cccc(OCC(O)CN3CCc4ccccc4C3)c2)c1)N1CCCC1 (stereo not drawn) [Compound D185] | 10 to 40 | 1 to 10
6 | CNC(=O)c1cccc(-c2cccc(OCC(O)CN3CCc4ccccc4C3)c2)c1 (stereo not drawn) [Compound D186] | > 20 | 1 to 10
7 | Cc1cn(C)c2cc(-c3cccc(OCC(O)CN4CCc5ccccc5C4)c3)ccc12 (stereo not drawn) [Compound D187] | > 20 | 1 to 10
8 | OC(COc1cccc(-c2ccc3ncoc3c2)c1)CN1CCc2ccccc2C1 (stereo not drawn) [Compound D188] | 10 to 40 | 1 to 10
9 | Cn1cnc2ccc(-c3cccc(OCC(O)CN4CCc5ccccc5C4)c3)nc21 (stereo not drawn) [Compound D189] | 0.101 to 1 | 0.101 to 1
10 | Cn1cnc2cnc(-c3cccc(OCC(O)CN4CCc5ccccc5C4)c3)nc21 (stereo not drawn) [Compound D191] | 1 to 10 | 0.101 to 1
11 | Cn1cnc2ccc(-c3cncc(NCC(O)CN4CCc5ccccc5C4)c3)cc21 (stereo not drawn) [Compound D199] | 1 to 10 | < 0.1
12 | OC(COc1cccc(-c2cc(OC(F)(F)F)ccc2Cl)c1)CN1CCc2ccccc2C1 (stereo not drawn) [Compound D200] | > 20 | 10 to 40
13 | CC(C)Oc1ccc(F)c(-c2cccc(OCC(O)CN3CCc4ccccc4C3)c2)c1 (stereo not drawn) [Compound D201] | > 20 | 1 to 10
14 | Cn1ncc2ccc(-c3cc(NCC(O)CN4CCc5ccccc5C4)ncn3)cc21 (stereo not drawn) [Compound D205] | > 20 | 0.101 to 1
15 | Cn1cnc2ccc(-c3cc(NCC(O)CN4CCc5ccccc5C4)ncn3)cc21 (stereo not drawn) [Compound D207] | 1 to 10 | 0.101 to 1
